For 34 compounds, Drug metabolism and GI50 results are on record in ChEMBL document CHEMBL4261573, “Synthesis and growth-inhibitory activities of imidazo[5,1-d]-1,2,3,5-tetrazine-8-carboxamides related to the anti-tumour drug temozolomide, with appended silicon, benzyl and heteromethyl groups at the 3-position” (Medchemcomm, 2018).

Series [1] in a line: Drug level in deuterated phosphate buffer/D2O at pD 7 treated with 3-(2-Trimethylsilylethoxy)methylimidazotetrazine measured every 15 mins for 12 to 18 hrs by 1H NMR method.
The nature of series [2]: Drug level in deuterated phosphate buffer/D2O at pD 7 treated with 3-Trimethylsilylmethylimidazotetrazine measured every 15 mins for 12 to 18 hrs by 1H NMR method.
Series [3] concerns SNB-19. As to the kind of experiment: Growth inhibition of MGMT-transfected human SNB19 cells expressing MGMT after 7 days by MTT assay. The conditions noted are these: SNB-19, 168 h. The series is classed as functional. A general note: Tetrazolium dyes change colour on reduction, which living cells bring about.
The subject of series [4] is U373 MG. As to the kind of experiment: Growth inhibition of MGMT-transfected human U373 cells expressing MGMT after 7 days by MTT assay. The series is classed as functional, U-373MG ATCC. The conditions noted are these: 168 h.
Series [5] concerns SNB-19. As to the kind of experiment: Growth inhibition of vehicle-transfected human SNB19 cells after 7 days by MTT assay. The conditions noted are these: SNB-19, 168 h. The series is classed as functional.
Series [6] concerns U373 MG. The series is described as follows: Growth inhibition of vehicle-transfected human U373 cells after 7 days by MTT assay. The series is classed as functional, U-373MG ATCC. As to conditions: 168 h.

Some results are limits rather than exact numbers.

Turning to `NC(=O)c1[nH]cnc1N`, the Drug metabolism result in series [1] and in series [2] was “Metabolite_Detected” throughout.

`C[Si](C)(C)CCO`: in series [1], the Drug metabolism result is on record as “Metabolite_Detected”.

For orientation: GI50 means the concentration at which growth is held to half of that of the control. Higher therefore signals lower sensitivity of the cells. Regarding `C[C@H](c1ccccc1)n1nnc2c(C(N)=O)ncn2c1=O`, the GI50 was 49.7 µM with SNB-19 [3], above 50 µM with U373 MG [4], 32.7 µM in the series on SNB-19 [5] and above 50 µM in the series on U373 MG [6].

On to `COc1ccc(Cn2nnc3c(C(N)=O)ncn3c2=O)cc1OC`, for which the 50% growth inhibitory concentration (GI50) in the series with SNB-19 [3], with U373 MG [4], in the series on SNB-19 [5] and in the series with U373 MG [6] was above 50 µM throughout.

`NC(=O)c1nc[nH]c1N/N=N/Cc1ccoc1`: the GI50 with SNB-19 [3], in the series on U373 MG [4], with SNB-19 [5] and in the series with U373 MG [6] was above 50 µM each time.

On to `NC(=O)c1ncn2c(=O)n(Cc3c[nH]nn3)nnc12`, for which the GI50 in the series with SNB-19 [3], with U373 MG [4], in the series with SNB-19 [5] and in the series on U373 MG [6] was above 50 µM throughout.

Turning to `NC(=O)c1ncn2c(=O)n(Cc3ccco3)nnc12`, the GI50 in the series on SNB-19 [3], in the series on U373 MG [4], with SNB-19 [5] and in the series on U373 MG [6] was above 50 µM throughout.

For the compound `NC(=O)c1nc[nH]c1N/N=N/Cc1ccco1`, the concentration for 50% growth inhibition (GI50) in the series with SNB-19 [3], with U373 MG [4], with SNB-19 [5] and in the series with U373 MG [6] was above 50 µM in each case.

On to `NC(=O)c1ncn2c(=O)n(Cc3ccsc3)nnc12`, for which the GI50 in the series with SNB-19 [3], with U373 MG [4], in the series with SNB-19 [5] and with U373 MG [6] was above 50 µM each time.

In the case of `C[Si](C)(C)Cn1nnc2c(C(N)=O)ncn2c1=O`, the GI50 is 302 µM with SNB-19 [3], 250 µM with U373 MG [4], 28.4 µM in the series with SNB-19 [5] and 45.6 µM with U373 MG [6].

In the case of `NC(=O)c1ncn2c(=O)n(Cc3ccccc3)nnc12`, the GI50 in the series on SNB-19 [3], in the series with U373 MG [4], with SNB-19 [5] and in the series with U373 MG [6] was above 50 µM in each case.

For the compound `NC(=O)c1nc[nH]c1N/N=N/Cc1ccccc1`, the GI50 in the series on SNB-19 [3], with U373 MG [4], in the series on SNB-19 [5] and in the series with U373 MG [6] was above 50 µM each time.

In the case of `COc1ccc(Cn2nnc3c(C(N)=O)ncn3c2=O)c(OC)c1`, the GI50 with SNB-19 [3], in the series with U373 MG [4], in the series with SNB-19 [5] and in the series with U373 MG [6] was above 50 µM throughout.

As for `COc1ccc([C@@H](C)n2nnc3c(C(N)=O)ncn3c2=O)cc1`, the GI50 in the series with SNB-19 [3], in the series with U373 MG [4], in the series with SNB-19 [5] and in the series on U373 MG [6] was above 50 µM each time.

In the case of `C=O.O`, in series [1], the Drug metabolism result is “Metabolite_Detected”.

Take `COc1cc(Cn2nnc3c(C(N)=O)ncn3c2=O)cc(OC)c1OC`: the concentration for 50% growth inhibition (GI50) in the series with SNB-19 [3], in the series on U373 MG [4], in the series with SNB-19 [5] and with U373 MG [6] was above 50 µM in each case.

On to `Cc1noc(Cn2nnc3c(C(N)=O)ncn3c2=O)n1`, for which the GI50 in the series on SNB-19 [3], in the series on U373 MG [4], with SNB-19 [5] and with U373 MG [6] was above 50 µM each time.

Consider `NC(=O)c1nc[nH]c1N/N=N/CCc1ccccc1`, for which the GI50 with SNB-19 [3], in the series with U373 MG [4], with SNB-19 [5] and in the series on U373 MG [6] was above 50 µM each time.

On to `NC(=O)c1ncn2c(=O)n(C(c3ccccc3)c3ccccc3)nnc12`, for which the GI50 in the series on SNB-19 [3], in the series with U373 MG [4], with SNB-19 [5] and with U373 MG [6] was above 50 µM throughout.

On to `Cc1cc(Cn2nnc3c(C(N)=O)ncn3c2=O)on1`, for which the GI50 in the series with SNB-19 [3], in the series with U373 MG [4], in the series on SNB-19 [5] and in the series with U373 MG [6] was above 50 µM throughout.

Regarding `COc1ccccc1Cn1nnc2c(C(N)=O)ncn2c1=O`, the GI50 in the series on SNB-19 [3], with U373 MG [4], with SNB-19 [5] and with U373 MG [6] was above 50 µM in each case.

With `C[C@@H](c1ccccc1)n1nnc2c(C(N)=O)ncn2c1=O`, the GI50 in the series on SNB-19 [3] was 45.3 µM; in the series with U373 MG [4], above 50 µM; in the series on SNB-19 [5], 34.7 µM; with U373 MG [6], above 50 µM.

In the case of `NC(=O)c1nc[nH]c1N/N=N/Cc1cccs1`, the GI50 in the series on SNB-19 [3], with U373 MG [4], in the series with SNB-19 [5] and in the series on U373 MG [6] was above 50 µM each time.

As to `C[Si](C)(C)CCOCn1nnc2c(C(N)=O)ncn2c1=O`, the concentration for 50% growth inhibition (GI50) was found to be 27.5 µM with SNB-19 [3], 24.2 µM in the series with U373 MG [4], 29.9 µM with SNB-19 [5] and 25.3 µM with U373 MG [6].

Take `NC(=O)c1ncn2c(=O)n(CCc3ccccc3)nnc12`: the GI50 in the series on SNB-19 [3], in the series on U373 MG [4], with SNB-19 [5] and in the series with U373 MG [6] was above 50 µM each time.

With `COc1cccc(Cn2nnc3c(C(N)=O)ncn3c2=O)c1`, the GI50 in the series on SNB-19 [3], in the series on U373 MG [4], in the series on SNB-19 [5] and in the series with U373 MG [6] was above 50 µM throughout.

Take `CC[C@@H](c1ccccc1)n1nnc2c(C(N)=O)ncn2c1=O`: the GI50 in the series on SNB-19 [3], with U373 MG [4], in the series on SNB-19 [5] and in the series with U373 MG [6] was above 50 µM in each case.

Consider `COc1ccc(Cn2nnc3c(C(N)=O)ncn3c2=O)cc1`, for which the GI50 in the series on SNB-19 [3], in the series with U373 MG [4], with SNB-19 [5] and in the series with U373 MG [6] was above 50 µM in each case.

Take `NC(=O)c1nc[nH]c1N/N=N/Cc1ccsc1`: the GI50 in the series on SNB-19 [3], in the series on U373 MG [4], in the series on SNB-19 [5] and in the series with U373 MG [6] was above 50 µM in each case.

In the case of `NC(=O)c1ncn2c(=O)n(Cc3cccs3)nnc12`, the GI50 with SNB-19 [3], with U373 MG [4], in the series with SNB-19 [5] and with U373 MG [6] was above 50 µM in each case.

For the compound `CC(c1ccc(Br)cc1)n1nnc2c(C(N)=O)ncn2c1=O` (racemic), the GI50 in the series on SNB-19 [3], in the series on U373 MG [4], with SNB-19 [5] and in the series on U373 MG [6] was above 50 µM each time.

On to `CO` [METHYL ALCOHOL], for which, in series [2], the Drug metabolism result is given as “Metabolite_Detected”.

As to `COP(=O)(O)O` [PHOSPHORIC ACID MONOMETHYL ESTER], the Drug metabolism result in series [2] is reported as “Metabolite_Detected”.

With `Cn1nnc2c(C(N)=O)ncn2c1=O` [TEMOZOLOMIDE], the concentration for 50% growth inhibition (GI50) in the series on SNB-19 [3] turned out to be 470 µM; in the series with U373 MG [4] it was 369 µM; with SNB-19 [5] it was 35.7 µM; in the series on U373 MG [6], 68 µM.
